Bounds are passed on as bounds.

As a reminder, the melting point is the temperature of the solid-liquid transition. In turn, `COc1cc2c(cc1Nc1ncc(Cl)c(N[C@H]3[C@@H](C(N)=O)[C@@H]4C=C[C@H]3C4)n1)CCN(Cc1ncco1)CC2` yielded a melting point of 110 to 119 °C.

On to `Cc1cc(C(O)(C(F)(F)F)C(F)(F)F)cc(C)c1SCC(=O)O`, for which the melting point lay in the range of 133 to 135 °C.

On to `COC(=O)Nc1nc2cc(C(C3CC3)n3ccnc3)ccc2[nH]1` (centres undefined), for which the melting point stood at 218 °C.

As for `Cn1cnc2nc(C#Cc3ccccc3)nn2c1=S`, the melting point lay within 290 to 295 °C.

`COC(=O)c1ccc(C(=O)O)cc1C(=O)OC` gave a melting point of 168 to 169 °C.

Take `CC(C)(C)[Si](C)(C)OC1CCN(S(=O)(=O)c2ccc(N3CCCCC3)cc2)C1=O` (centres undefined): the melting point fell in the range of 111 to 112 °C.

Turning to `CN(c1ccccc1)c1ncccc1NC(=O)c1ccccc1Br`, the melting point was 144 to 146 °C.

Turning to `O=C1NCCc2ccc(OCCCCN3CCN(c4cccc5ccccc45)CC3)nc2N1`, the melting point lay within 188 to 190 °C.

The compound `CN(C)Cc1ccc(Cc2cnc(N[N+](=O)[O-])[nH]c2=O)cn1` registered a melting point of 234 to 238 °C.

`NS(=O)(=O)NCC1CCc2ccccc2O1` (centres undefined) had a melting point of 100 to 101 °C.

On to `CCOC(=O)CCc1nc(-c2ccc(Cl)cc2)co1`, for which the melting point lay within 65 to 66 °C.

In the case of `N[C@@H](Cc1ccccc1)C(=O)NC(=O)OCc1ccccc1`, the melting point is 158 to 160 °C.

`COc1ccc(CCc2cccc(C(=O)Nc3ccc(Cl)cc3)c2O)cc1` displayed a melting point of 141 °C.

For `O=C(O)CCc1cnoc1-c1cc(Cl)cc(Cl)c1`, the melting point was 143 to 144 °C.

`COCCNC(=O)Nc1c(C)c(C)c2c(c1C)C(c1ccc(C(C)C)cc1)CO2` (centres undefined): the melting point fell in the range of 172 to 173 °C.

As for `Cc1nc2c(c(N3CCN(CCO)CC3)n1)OC(C)C(=O)N2` (centres undefined), the melting point is 160 to 161 °C.

`CCC(O)c1cc(C2(c3cccc(-c4cccnc4F)c3)N=C(N)N(C)C2=O)cn1CC` (centres undefined) had a melting point of 115 to 121 °C.

`Cc1c(Cl)[nH]c(=O)n(Cc2ccccc2)c1=O` yielded a melting point of 202 to 205 °C.

As to `NNC1(Cl)C=Cc2nc(Cl)cnc2C1` (centres undefined), the melting point was less than 250 °C.

The compound `COc1ccc(-c2c(-c3ccc(S(C)(=O)=O)cc3)[nH]c3ccccc23)cc1` gave a melting point of 218 to 220 °C.

In the case of `ON=c1cc(-c2cc3cccn3cn2)oc2ccc(OCCCOc3cccnc3)cc12`, the melting point fell in the range of 202 to 205 °C.

As for `CC(C)(C)c1cc(/C=C(\C#N)C(=O)NCCCc2ccccc2)cc(C(C)(C)C)c1O`, the melting point is 209 °C.

As to `COc1ccc(C(O)Cc2c(Cl)cccc2Cl)cc1OC1CCCC1` (centres undefined), the melting point lay in the range of 87 to 89 °C.

Compound `CCC(=O)c1ccc(OC(C)c2ccc(Cl)cc2)cc1` (centres undefined) gave a melting point of 70 to 71 °C.

In turn, `CC(C)(CO)NC(=O)c1nn(-c2ccc(F)cc2)c2c1C1CCC2CC1` yielded a melting point of 165 to 168 °C.

`O=CNC1=NN(c2ccc(Cl)c(Cl)c2)CC1`: the melting point fell in the range of 151 to 153 °C.

In the case of `Cn1cc([C@H]2CC[C@@H](N3CCN(c4cc(Br)cc5cccnc45)CC3)CC2)c2cc(F)ccc21`, the melting point was in the range of 215 to 217 °C.

`CCc1ccc(-c2ccc(-c3ccc(C)s3)c(F)c2)cc1` returned a melting point of 102 °C.

Compound `COc1ccc(C(=O)C(=O)c2cccc(-c3ccc(S(C)(=O)=O)cc3)c2-c2ccccc2)cc1OC` showed a melting point of 181 to 183 °C.

Regarding `O=C(Cl)c1cc(Br)c(C(=O)Cl)cc1Br`, the melting point lay in the range of 80 to 82 °C.

`COC(=O)CN1CC(=O)NC1=NN=Cc1ccccc1`: the melting point was in the range of 149 to 153 °C.

Compound `Cc1nc(-c2ccc3c(c2)CCCC3)co1` returned a melting point of 53 to 54 °C.

In turn, `COc1cc(C(=O)CCCN2CCC(OC(=O)c3cc(Cl)c(N)c4c3OCCC4)CC2)cc(OC)c1OC` registered a melting point of 113 °C.

`CCCC(=O)NC1=CC(=O)c2ccc(C)nc2C1=O`: the melting point was in the range of 188 to 189 °C.

On to `CCCn1c(COCC)nc2c(N)nc3cc(OCCN4CCOCC4)ccc3c21`, for which the melting point was 191 to 192 °C.

On to `O=[N+]([O-])c1cccn2nc(SCc3ccccc3)nc12`, for which the melting point was 125 to 126 °C.

`N#Cc1c(-c2cccc(N)c2)cc(-c2ccccc2O)nc1NC(=O)c1ccsc1` displayed a melting point of 257 to 260 °C.

Turning to `CNC(=O)c1cccc(NC(=O)COc2ccc3ccccc3c2)c1`, the melting point was 174 °C.

`CNC(=S)C1(c2cnc3ccccc3c2)CCCCC1=CC=O` (centres undefined) yielded a melting point of 149 to 151 °C.

On to `Clc1ccccc1-c1nc(Cl)n(-c2ccccc2Cl)n1`, for which the melting point was 95.5 °C.

Turning to `N=C(N)N1CCC(CCC(=O)O)CC1`, the melting point was greater than 275 °C.

`O=c1c2cnc(-c3ccccc3)nc2sn1Cc1ccccc1`: the melting point lay in the range of 166 to 167 °C.

Regarding `CCCCC(=O)NCc1ccc(C#CCCOCCCCCCNCc2ccccc2)cc1`, the melting point lay in the range of 66 to 67 °C.

As to `CC=NN(C)C1=NOCc2ccc(Cl)cc21`, the melting point was 111 to 112 °C.

`FC(F)(F)c1ccc2nnc(-c3c(Cl)cccc3Cl)n2c1` showed a melting point of 104 to 105 °C.

Compound `CC1(C)C(C(=O)O)N2C(=O)C(NC(=O)Cc3ccccc3)C2S1=O` (centres undefined) showed a melting point of 143 to 145 °C.

In turn, `CN=C(NS(=O)(=O)c1ccc(Cl)cc1)C1=NN(c2ccc(Cl)cc2Cl)C(c2ccccc2)C1` (centres undefined) displayed a melting point of 128 to 130 °C.

`COc1ccc([C@@H]2Sc3cc(C)c(C)cc3N(CCN(C)C)C(=O)[C@@H]2O)cc1` gave a melting point of 117 to 118 °C.

The compound `CCCN1Cc2c(ncnc2C2C(=O)Nc3ccc(C#N)cc32)N1` (centres undefined) displayed a melting point greater than 300 °C.

Compound `NC(=O)/C(=N/O)c1ccccc1Oc1ccccc1` yielded a melting point of 157 to 159 °C.

The compound `CN(CCCCc1ccc(NC(=O)c2cccc3c(=O)c4ccccc4[nH]c23)cc1)Cc1ccc(F)cc1` gave a melting point of 151 °C.

For `Cc1ccsc1C(=O)Nc1ccc(C(=O)N2Cc3cccn3Cc3ccccc32)cc1`, the melting point lay in the range of 232 to 235 °C.

As for `CCCC(C)(C)C[C@@H](CC(=O)OC(C)(C)C)C(=O)N1C(=O)O[C@H](c2ccccc2)[C@@H]1C`, the melting point lay within 83 to 85 °C.

Turning to `C=CCC(C#N)(C#N)Cc1ccc(C(F)(F)F)cc1`, the melting point came to 80.2 °C.

`CCCn1c(=O)c2c(nc(/C=C/c3ccc(O)c(OC)c3)n2C)n(CCC)c1=O` had a melting point of 187 to 188 °C.

For `C#CCOc1ccc2c(C)cc(=O)oc2c1C(=O)C=Cc1cccc(OC)c1`, the melting point lay within 154 to 156 °C.

The compound `CC(=O)OC(C(=O)N1C(Cc2ccccc2)COC1(C)C)c1ccc(-c2ccc(-c3ccccc3)cc2)o1` (centres undefined) displayed a melting point of 120 to 128 °C.

In the case of `Cc1ccc(-c2[nH]c(-c3ccccc3[N+](=O)[O-])nc2C(=O)Nc2nccs2)cc1`, the melting point was 203 to 204 °C.

`CCOC(=O)NCCc1cccc(C(=O)C=CN(C)C)c1` showed a melting point of 45 to 50 °C.

`CC1(C)CCC(C)(C)c2cc(Oc3ccc4c(CO)cccc4c3)ccc21` showed a melting point of 131 to 133 °C.

For `NC(=O)CN1C(=O)CN2C(=O)CCC12` (centres undefined), the melting point was in the range of 182 to 185 °C.

As to `Cc1ccc(-c2nn(C(C)(C)C(=O)N(C)C)cc2C)c(Cl)c1`, the melting point was 126 to 128 °C.

For the compound `CCC(O)CP(=O)(O)CCCN` (centres undefined), the melting point was in the range of 184 to 185 °C.

With `O=S(=O)(NCC1CCN(C[C@H]2COc3ccc(Cl)cc3O2)CC1)c1ccc(Cl)cc1`, the melting point was 152 to 154 °C.

Values taken from a melting point compilation (Tetko et al.; mined from patent text by program, amines drawn as free bases though some values may be those of a salt).
